Columns and labels:
human whole blood = test: AAV-mediated cytokine release in human whole blood (one AAV8 pre-immune donor); type: cell-based; details: dasatinib 12.5 or 50 nM, 24 hrs with 5E11 vg/mL AAV8-hSEAP
Method: FIGS. 5A-5B. Effect of dasatinib on AAV-mediated cytokine release in human whole blood. The production of low levels of IFN-γ and IL-6 in whole blood are stimulated after 24 hrs incubation with 5E11 vg/mL of AAV8-hSEAP. […] Depicted are cytokine concentrations (pg/mL+/−SD, left), fold increases over the level measured in the PBS control (middle) and percentages of inhibition of AAV-dependent cytokine release (right, calculated as 100 × (concentration with AAV8 alone-concentration with AAV8 and dasatinib)/(concentration with AAV8 alone)), respectively. (FIG. 5A) Interferon-γ production. (FIG. 5B) IL-6 production.
To assess whether dasatinib could affect AAV-mediated cytokine release, an assay was performed in whole blood from a healthy donor. This donor was seropositive for anti-AAV8 antibodies (IgG titer: 1/21870; IgM titer: 1/810). Whole blood from an AAV8 pre-immune donor was incubated in triplicates with 5E11 vg/mL (GC/mL) of an AAV8-hSEAP vector, in the presence or absence of 12.5 nM or 50 nM dasatinib. Lipopolysaccharide (LPS) and Lemtrada (alemtuzumab, anti-CD52, Genzyme), a monoclonal antibody known to induce strong cytokine release in blood, were used as positive controls at a concentration of 1 μg/ml and 0.1 μg/ml respectively. […] After 24 hrs, plasma supernatants were collected and cytokines measured using Quanterix kits with the SP-X imaging and analysis system (Simoa).

C57B1/6 mice = test: anti-AAV8 IgM and IgG titers (ELISA on empty AAV8 capsids) after rAAV8 administration in mice; type: in vivo
Method: FIG. 1. rAAV8 readministration in mice and Dasatinib treatment. C57B1/6 mice were intravenously dosed on study day 1 with a rAAV8 encoding the hSEAP (human secreted alkaline phosphatase) at the dose of 1E12 vg/kg. On study day 22, they received a second rAAV8 encoding hFIX (human Factor IX) at the dose of 5E13 vg/kg. […] Group 2 (immunized mice, n=10) received both rAAV8 injections. Group 3 mice (n=10) received the two rAAV8 injections and were treated by oral gavage with 50 mg/kg dasatinib twice per day for 7 days starting on the day of first rAAV8 dosing. Blood samples were collected one day before and every 7 days after the first rAAV8 treatment.
(§1) FIGS. 2A-2C. Effects of dasatinib treatment on anti-AAV8 IgM titers. Serum was isolated from blood collected on study days 0, 8, 15, 21, 29 and 36 (FIG. 1) and anti-AA V8 IgM measured by ELISA, performed on immobilized empty AAV8 capsids. IgM antibody titers were determined by ELISA OD values of serial dilutions (1:10 and 7-step serial dilution 1:3). For the determination of mean background level, readouts were pooled from all mouse groups at day 0. The positivity threshold is represented by the dotted line. The kinetics of anti-AAV8 IgM antibody titers is shown for each mouse group (FIGS. 2A-2C). The empty circles represent titers under the threshold, and crossed circles represent titers above the threshold.
as §1, with “FIGS. 3A-3C.” for “FIGS. 2A-2C.”, “anti-AAV8 IgG” for “anti-AAV8 IgM”, “and anti-AAV8 IgG” for “and anti-AA V8 IgM”, “capsids. IgG” for “capsids. IgM”, “of anti-AA V8 IgG” for “of anti-AAV8 IgM”, “(FIGS. 3A-3C).” for “(FIGS. 2A-2C).”
To assess whether dasatinib could efficiently prevent anti-AAV antibody formation after rAAV administration and allow efficient re-administration of rAAV, a study was conducted in mice (FIG. 1). Groups of C57B1/6 mice were intravenously dosed with a first rAAV8 encoding hSEAP (human secreted alkaline phosphatase, under control of a CMV promoter) at the dose of 1E12vg/kg on study day 1. On study day 22, they were dosed with a second rAAV8 encoding hFIX (human Factor IX, under control of a CMV promoter) at the dose of 5E13 vg/kg. […] Group 3 mice were treated with Dasatinib at the dose of 50 mg/kg by oral gavage twice per day for 7 days, starting on the day of first rAAV8 dosing. […]

[1] = tested on: PBMCs from human heathy donors; test: FluoroSpot T cell responses of PBMCs to AAV2 and AAV9 capsid peptide pools; type: cell-based; details: 100 nM dasatinib, 48 hrs, two donors
Method: FIGS. 12A-12B: Dasatinib treatment reduces T cell responses to AAV2 and AAV9 in vitro. PBMCs from human heathy donors were stimulated with peptide pools covering the AAV2 and AAV9 capsid sequences in the absence (black bars) or presence of 100 nM dasatinib (grey bars). After 48 hrs, IFN-γ- and TNF-α secreting cells were measured by Fluorospot. Mean Spot-Forming Cellsmedian+/−SD are shown for 1E6 PBMCs. Dotted line: Positivity threshold.
An important question was its potential effect on the cellular adaptive immune response. T cell responses to rAAV have been reported to induce the clearance of AAV-transduced cells and thereby decrease the duration of transgene expression. It is also known that T cell responses to AAV can mediate liver toxicities in the clinic. T cell responses to AAV can be measured in healthy human blood donors who have previously been infected with wild-type AAV. FluoroSpot assays reveal the proportions of IFN-y-and TNF-a-producing PBMCs induced upon incubation with pools of AAV capsid peptides. We used this assay to assess the response of PBMCs from two healthy blood donors to three different peptide pools covering the capsid sequences of AAV2 and AAV9 (FIGS. 12A-12B). […] Donor 2 had positive IFN-γ and/or TNF-α responses to AAV9 pools 2 and 3. All these responses were inhibited in the presence of 100 nM dasatinib.

## Cc1nc(Nc2ncc(C(=O)Nc3c(C)cccc3Cl)s2)cc(N2CCN(CCO)CC2)n1 [dasatinib, N-(2-chloro-6-methylphenyl)-2-[[6-[4-(2-hydroxyethyl)-1-piperazinyl]-2-methyl-4-pyrimidinyl]amino]-5-thiazole carboxamide monohydrate]
Human whole blood
  IFN-γ production: reduced dose-dependently
  IL-6 production: reduced dose-dependently
C57B1/6 mice; Group 3, 50 mg/kg oral gavage twice per day for 7 days
  anti-AAV8 IgG titers compared with immunized control Group 2: drastically reduced
C57B1/6 mice; Group 3, 50 mg/kg oral gavage twice per day for 7 days from first rAAV8 dosing, until administration of second rAAV8 (day 22)
  anti-AAV8 IgM in serum versus positivity threshold: remained underthe IgM positivity threshold
C57B1/6 mice; Group 3, study day 21, 50 mg/kg oral twice per day for 7 days
  mice above the anti-AAV8 IgG positivity threshold: 4/10
C57B1/6 mice; day 36, two weeks after rAAV8 re-administration
  anti-AAV8 IgG titers after rAAV8 re-administration: comparable in all mouse groups
[1]
  IFN-γ responses (secreting cells) to AAV9 peptide pools: inhibited
  TNF-α responses (secreting cells) to AAV2 and AAV9 peptide pools: inhibited

— patent US20260000670A1 (priority 2022, published 2026)
